Test results from paper PMC7305224, “Mutually stabilizing interactions between proto-peptides and RNA” (Nature Communications, 2020).

Assays:
Format in all cases: binding
[1] = system: RNA duplex 1 (5′-rCrGrCrUrArArArUrCrG-3′ & 5′-rCrGrArUrUrUrArGrCrG-3′); test: RNA thermal denaturation (Tm) by UV hyperchromicity at 260 nm with synthetic peptides/depsipeptides, RNA duplex 1; conditions: 100 mM NaCl
Method: Each sample contained RNA duplex 1 (5′-rCrGrCrUrArArArUrCrG-3′ and 5′-rCrGrArUrUrUrArGrCrG-3′, 2.5 μM strand) and peptide/depsipeptide (100 μM) in buffered solution (10 mM phosphate, 100 mM NaCl, pH 7.0 or 10 mM acetate, 100 mM NaCl, pH 5.0). a Structures of depsipeptides used to systematically characterize cationic side chain effects on RNA duplex stability. Lactic acid residues are highlighted. Ac acetyl, Aba acetamidobenzoic acid, which was appended to the N-terminus to increase UV absorbance. b Structures of the Fmoc-didepsipeptide building blocks used for solid-phase synthesis of depsipeptide sequences. Fmoc fluorenylmethoxycarbonyl. c Comparative effects of oligo-didepsipeptide sequences 2–6 and analogous oligo-dipeptide and on the Tm of the RNA duplex (number of independent measurements: n = 3 for Arg and Lys sequences; n = 2 for His and Dab sequences; n = 4 for Orn sequences). The shaded areas correspond to the mean ± SD Tm measured for the RNA duplex alone (n = 16 independent measurements). Data are shown as a scatter plot with mean ± SD. d Comparative effects on RNA duplex Tm of depsipeptide sequences containing a single backbone ester (number of independent measurements: n = 3 for Arg; n = 2 for His, Orn, and Dab; n = 4 for Lys), relative to RNA duplex alone (n = 16 independent measurements). Data are shown as a scatter plot with mean ± SD. e To assess the impact of different cationic side chains on depsipeptide degradation rates, depsipeptides 7–11 (40 μM) were incubated at 37 °C in buffer (100 mM HEPES, 10 mM NaCl, pH 7.3). After 5 min, the reactions were quenched by the addition of 3% TFA, and samples were analyzed by HPLC.
(§1) Prior to Tm analyses, RNA samples were annealed in the appropriate buffer by heating to 75 °C and slowly cooling to room temperature. Depsipeptide/peptide was added to the annealed RNA and incubated at 4 °C for 20 min prior to carrying out the analysis. For analyses involving dry-down reaction mixtures, the Tm was determined by monitoring fluorescence increase upon melting of a fluorophore/quencher-labeled RNA duplex (5′-rCrGrArUrUrUrArGrCrG-/3IABkFQ/-3′ and 3′-rGrCrUrArArArUrCrGrC-FAM-5′) using a BioRad CFX Connect rtPCR instrument with a heating ramp of 1 °C/min and 20 μL final sample volumes. For analyses involving pure, synthetic compounds, the Tm of the RNA was determined by monitoring UV hyperchromicity at 260 nm using a Varian Cary Bio-100 spectrophotometer, with a heating ramp of 1 °C/min and 0.5- or 1-cm pathlength cells. The following RNA sequences were used: RNA duplex 1 = 5′-rCrGrCrUrArArArUrCrG-3′ and 5′-rCrGrArUrUrUrArGrCrG-3′; RNA duplex 2 = 5′-rArArArArUrUrUrArUrArUrUrArUrUrA-3′ and 5′-rUrArArUrArArUrArUrArArArUrUrUrU-3′; RNA duplex 3 = 5′-rArArCrGrUrArUrArCrGrUrU-3′ (palindromic); and H26a RNA = 5′-rArUrGrArGrUrArArCrCrGrUrArArGrGrUrGrArArArUrU-3′. RNA was present in each assay at a final concentration of 2.5 μM of the folded structure (2.5 μM each strand for duplex 1 and duplex 2, 5.0 μM palindromic strand for duplex 3, 2.5 μM strand for H26a RNA). Tm values were determined by nonlinear fitting of the melting curves using GraphPad Prism 8.2.1 for duplex 1 and H26a, or by finding the maximum of the first derivative of the curve using the Varian Cary Bio-100 software for duplex 2 and duplex 3.

[2] = system: RNA duplex 3 (5′-rArArCrGrUrArUrArCrGrUrU-3′, palindromic); test: RNA thermal denaturation (Tm) by UV hyperchromicity, RNA duplex 3
Method: as §1, with “3. Both methods of determining the Tm gave similar values for a given denaturation curve.” for “3.”

[3] = system: H26a RNA (5′-rArUrGrArGrUrArArCrCrGrUrArArGrGrUrGrArArArUrU-3′); test: RNA thermal denaturation (Tm) by UV hyperchromicity, H26a RNA hairpin
Method: as §1, with “3. Both methods of determining the Tm gave similar values for a given denaturation curve.” for “3.”

Aba-Gly-Ala-Dab-Lys-Ala-Dab-Lys-lac-Dab-Lys-Ala-Dab-Lys-NH2 [compound 9]
RNA duplex 1 Tm ([1]; observed Tm with peptide/depsipeptide 100 µM, pH 7.0, 10 mM phosphate, RNA alone 43.8 ± 0.4, mean ± SD of 2-4 independent experiments): 54.2 ± 1.3 °C
RNA duplex 1 ΔTm ([1]; peptide/depsipeptide 100 μM, RNA 2.5 μM each strand, 10 mM phosphate, pH 7.0, vs RNA alone at matched pH, mean of 2–4 replicates): 10.4 °C
RNA duplex 3 Tm ([2]; observed Tm with peptide/depsipeptide 100 µM, pH 7.0, RNA alone 48.6 ± 0.7, mean ± SD of 2-4 independent experiments): 58.5 ± 0.7 °C
RNA duplex 3 ΔTm ([2]; peptide/depsipeptide 100 μM, 5.0 μM palindromic strand, pH 7.0, 10 mM phosphate, 100 mM NaCl, mean of 2–4 replicates): 9.9 °C
H26a RNA Tm ([3]; observed Tm with peptide/depsipeptide 100 µM, pH 7.0, RNA alone 53.4 ± 0.5, mean ± SD of 2-4 independent experiments): 64.9 ± 0.7 °C
H26a RNA ΔTm ([3]; peptide/depsipeptide 100 μM, RNA 2.5 μM strand, pH 7.0, 10 mM phosphate, 100 mM NaCl, mean of 2–4 replicates): 11.5 °C
